# Measured values published in US5656662A, “Synthesis of optically pure 4-alkenyl- or 4-alkanyl-2-hydroxytetronic acids” (The Ohio State University Research Foundation, priority 1995, dated 1997).
# Columns and labels:
# Type in all cases: cell-based
# peptidoleukotrienes = experiment: Peptidoleukotriene production by purified human monocytes; design: key: NE: No effect; INHIB: Inhibition; STIM: Stimulation; IC40: 40% Inhibitory Concentration; EC50: 50% Effective Concentration; TC: Tolerated Concentration; IA: Interferes with Assay
# Protocol: This procedure measures the ability of test compounds to modulate the amount of peptidoleukotrienes produced by purified human monocytes. Compounds are tested for their ability to downregulate the secretion of peptidoleukotrienes from activated monocytes, or upregulate secretion of peptidoleukotrienes from unstimulated monocytes. Test compounds are incubated for ninety minutes with purified human monocytes at four dilutions over a range of three log10 concentrations. Where appropriate, zymosan is used to stimulate the monocytes.
# The level of peptidoleukotrienes in the resultant supernatants is quantitated by immunoassay performed in a 96 well format. Peptidoleukotriene levels modulated by unknown compounds are determined by interpolation from a standard curve. All compounds are tested in duplicate with controls and standards.
# IL-8 = IL-8 secretion from purified human monocytes; design: key: NE: No effect; INHIB: Inhibition; STIM: Stimulation; IC40: 40% Inhibitory Concentration; EC50: 50% Effective Concentration; TC: Tolerated Concentration; IA: Interferes with Assay
# Protocol: (§1) This assay determines the effect of test compounds on the secretion of IL-8 from purified human monocytes. Compounds are tested for their ability to downregulate the production of IL-8 in activated monocytes, or upregulate secretion of IL-8 in unstimulated monocytes. Test compounds are incubated for sixteen hours with purified human monocytes at four dilutions over a range of three log10 concentrations. Where appropriate, lipopolysaccharide (LPS) is used to stimulate the monocytes.
# (§2) The level of IL-8 in the resultant supernatants is quantitated in a solid phase Enzyme-linked Immunoassay (EIA) performed in a 96 well format. IL-8 present in the samples is captured by a specific monoclonal antibody immobilized on the well, and probed with an anti-IL-8 polyclonal antibody conjugated to horseradish peroxidase, followed by an appropriate substrate. The levels of IL-8 are determined by interpolation of the resultant color change in the substrate from a standard curve. All supernatants are tested in duplicate with controls and standards.
# tissue factor (TF) = experiment: Membrane bound tissue factor production from purified human monocytes; design: key to EFFECT on TISSUE FACTOR: NE: No effect; INHIB: Inhibition; STIM: Stimulation; IC40: 40% Inhibitory Concentration; EC50: 50% Effective Concentration; TC: Tolerated Concentration; IA: Interferes with Assay
# Protocol: This assay determines the effect of test compounds on the production of membrane bound tissue factor (TF) from purified human monocytes. Compounds are tested for their ability to downregulate the production of TF in activated monocytes, or upregulate production of TF in unstimulated monocytes. Test compounds are incubated for sixteen hours with purified human monocytes at four dilutions over a range of three log10 concentrations. Where appropriate, lipopolysaccharide (LPS) is used to stimulate the monocytes.
# After the above period of incubation, medium is aspirated from the monocytes, and the cells are solubilized in Triton-X 100. The level of TF in the soluble fraction is quantitated in a solid phase Enzyme-linked Immunoassay (EIA) performed in a 96 well format. TF present in the samples is captured by a specific monoclonal antibody immobilized on the well, and detected using a biotinylated antibody fragment specific for bound TF, followed by streptavidin conjugated to horseradish peroxidase and an appropriate substrate. The levels of TF are determined by interpolation of the resultant color change in the substrate from a standard curve. All supernatants are tested in duplicate with controls and standards.
# IL-6 = IL-6 secretion from purified human monocytes; design: key: NE: No effect; INHIB: Inhibition; STIM: Stimulation; IC40: 40% Inhibitory Concentration; EC50: 50% Effective Concentration; TC: Tolerated Concentration; IA: Interferes with Assay
# Protocol: as §1, with “IL-6” for “IL-8”
# as §2, with “IL-6” for “IL-8”, “anti-IL-6” for “anti-IL-8”
# LTB4 = LTB4 production by purified human monocytes; design: key: NE: No effect; INHIB: Inhibition; STIM: Stimulation; IC40: 40% Inhibitory Concentration; EC50: 50% Effective Concentration; TC: Tolerated Concentration; IA: Interferes with Assay
# Protocol: This assay measures the ability of test compounds to modulate the amount of LTB4 produced by the oxygenation of arachidonic acid by 5-lipooxygenase produced by purified human monocytes. Compounds are tested for their ability to downregulate the secretion of LTB4 from activated monocytes, or upregulate secretion of LTB4 from unstimulated monocytes. Test compounds are incubated for ninety minutes with purified human monocytes at four dilutions over a range of three log10 concentrations. Where appropriate, zymosan is used to stimulate the monocytes.
# The level of LTB4 in the resultant supernatants is quantitated by immunoassay performed in a 96 well format. LTB4 levels modulated by unknown compounds are determined by interpolation from a standard curve. All compounds are tested in duplicate with controls and standards.
# MTS = conditions: human, monocytes; read-out: TC (Tolerated Concentration), MTS
# TxA2 = TxA2 production by purified human monocytes; design: key to EFFECT on TxA2: NE: No effect; INHIB: Inhibition; STIM: Stimulation; IC40: 40% Inhibitory Concentration; EC50: 50% Effective Concentration; TC: Tolerated Concentration; IA: Interferes with Assay
# Protocol: This procedure measures the ability of test compounds to modulate the amount of TxA2 (the major cyclo-oxygenase product) produced by purified human monocytes. Compounds are tested for their ability to downregulate the secretion of TxA2 from activated monocytes, or upregulate secretion of TxA2 from unstimulated monocytes. Test compounds are incubated for ninety minutes with purified human monocytes at four dilutions over a range of three log10 concentrations. Where appropriate, zymosan is used to stimulate the monocytes.
# The level of TxA2 in the resultant supernatants is quantitated by immunoassay performed in a 96 well format. TxA2 levels modulated by unknown compounds are determined by interpolation from a standard curve. All compounds are tested in duplicate with controls and standards.
compound,measurement,setting,value
"CCCCCCCCCCCCCC/C=C\CC[C@@H]1OC(=O)C(O)=C1O [(S)-3,4-Dihydroxy-5-[(Z)-3-octadecenyl]-2(5H)-furanone]",EFFECT on PEPTIDOLEUKOTRIENES,peptidoleukotrienes; STIMULATED,NE
same,EFFECT on PEPTIDOLEUKOTRIENES,peptidoleukotrienes; UNSTIMULATED,NE
same,EFFECT on IL8,IL-8; STIMULATED,NE
same,EFFECT on IL8,IL-8; UNSTIMULATED,NE
same,EC50,"tissue factor (TF); Homo sapiens, Monocyte, STIMULATED, STIM",35 µM
same,EFFECT on TISSUE FACTOR,tissue factor (TF); STIMULATED,STIM
same,EFFECT on TISSUE FACTOR,tissue factor (TF); UNSTIMULATED,NE
same,EFFECT on IL6,IL-6; STIMULATED,NE
same,EFFECT on IL6,IL-6; UNSTIMULATED,NE
same,EFFECT on LTB4,LTB4; STIMULATED,NE
same,EFFECT on LTB4,LTB4; UNSTIMULATED,NE
same,MNTC,MTS,50 µM
same,EC50,"TxA2; Homo sapiens, Monocyte, STIMULATED, INHIB",5 µM
same,EFFECT on TxA2,TxA2; STIMULATED,INHIB
same,EFFECT on TxA2,TxA2; UNSTIMULATED,NE
